In patent US20060040885A1, “Bioprosthetic heart valves” (Mayo Foundation for Medical Education and Research, a …, priority 1999, published 2006):

Tests used:
[1] = system: nitric oxide synthase; assay: Nitric oxide synthase activity in aortic valve endothelial cell lysates (3H-L-arginine to L-citrulline conversion); format: cell-based, pigs; conditions: valvular cells treated with pravastatin
Protocol: To assess nitric oxide synthase activity, the aortic valve endothelial cell lysates were evaluated using an NADPH disphorase reaction. Briefly, each lysate was incubated for 30 minutes in a NOS assay buffer containing ^3H-L-arginine, NADPH (100 mM), tetrahydrobiopterin (1 mM), calmodulin ([…]), and CaCl2 (25 mM). The reaction was quenched with ice cold stop buffer (2 mM EDTA, 20 mM Hepes, pH 5.5). The mixture was passed over a Dowex AG50WX-8 Na form resin and washed with one mL stop buffer. Nitric oxide synthase activity was calculated to be the amount of L-arginine converted to L-citrulline that was inhibited by 1-NAME. A scintillation counter was used to determine the amount of radioactivity.

[2] = system: rabbit aortic valves; assay: 1% cholesterol diet in rabbits, aortic valve immunostaining (PCNA, osteopontin) and cholesterol levels; format: in vivo, New Zealand rabbits; conditions: 1% cholesterol diet for 12 weeks
Protocol: In another experiment, osteopontin expression was evaluated. Osteopontin is a non-collagenous bone matrix protein found to be present in the hypercholesterolemic aortic valves. New Zealand rabbits (n=8) were fed with a 1% cholesterol diet for 12 weeks. Eight control animals were fed a normal chow diet. Aortic valves were cut and foam cells were identified by immunostaining for macrophage antibody. Cell proliferation was assessed by immunostaining for proliferating nuclear antigen (PCNA), and osteopontin (OP) for calcification. Transmission electron microscopy immunogold labeling confirmed osteopontin expression.

[3] = system: cultured porcine aortic valve subendothelial cells; assay: 3H thymidine incorporation assay, serotonin-induced proliferation; format: cell-based
Protocol: To examine the direct proliferative effects of serotonin, cultured porcine aortic valve subendothelial cells were treated with 1 μM, 100 nM, and 10 nM of serotonin and then tested using a ^3H thymidine incorporation assay.

CC[C@H](C)C(=O)O[C@H]1C[C@H](O)C=C2C=C[C@H](C)[C@H](CC[C@@H](O)C[C@@H](O)CC(=O)O)[C@H]21 [Pravastatin, pravastatin]
nitric oxide synthase activity versus cells treated with serum-free media alone [1]: about 100 fold

CC(C)CCC[C@@H](C)[C@H]1CC[C@H]2[C@@H]3CC=C4C[C@@H](O)CC[C@]4(C)[C@H]3CC[C@]12C [cholesterol]
number of proliferating cells (PCNA) in aortic valves compared to controls [2]: thousand-fold increase
osteopontin expression in the atherosclerotic lesion of the aortic valves [2]: increased osteopontin expression

CSc1ccc2c(c1)C(N1CCN(C)CC1)Cc1ccccc1S2 (centres unmarked) [methiothepin]
effect on serotonin-induced proliferation ([3]; methiothepin 7 nM with serotonin): inhibited the serotonin-induced proliferation

NCCc1c[nH]c2ccc(O)cc12 [serotonin]
increase in cell proliferation compared to untreated cells ([3]; serotonin 1 μM, 100 nM and 10 nM, p<0.001): 33 fold
